Assay results as given in ChEMBL document CHEMBL1201862, “PubChem BioAssay data set” (2004).
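Step 1: Grow cells in 96-well plates. Step 2: Expose to compound for 48 hours at 5 concentrations. Step 3: Interpolate endpoints linearly; if unreached, use highest concentration. Abbreviation: GI50, concentration required for 50% inhibition of growth.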 Calls of active or inactive are those of the source. No stated cut-off is given here; in the data, active = GI50 up to about 1.1 µM and inactive = higher.

Key:
Assay in all cases: DTP human tumour cell line panel, 48 h
SK-MEL-5 = test system: SK-MEL-5
SK-OV-3 = test system: SK-OV-3
HOP-92 = test system: HOP-92
A549 = test system: A549
A498 = test system: A498
SNB-19 = test system: SNB-19
DU-145 = test system: DU-145
UACC-257 = test system: UACC-257
HT-29 = test system: HT-29
SNB-75 = test system: SNB-75
MDA-MB-435 = test system: MDA-MB-435
M14 = test system: M14
786-0 = test system: 786-0
IGROV-1 = test system: IGROV-1
SF-268 = test system: SF-268
HCT-15 = test system: HCT-15
OVCAR-5 = test system: OVCAR-5
OVCAR-4 = test system: OVCAR-4
CCRF-CEM = test system: CCRF-CEM
SN12C = test system: SN12C
MOLT-4 = test system: MOLT-4
MCF7 = test system: MCF7
Hs-578T = test system: Hs-578T
UO-31 = test system: UO-31
T47D = test system: T47D
K562 = test system: K562
NCI-H522 = test system: NCI-H522
PC-3 = test system: PC-3
HL-60 = test system: HL-60
SW-620 = test system: SW-620
COLO 205 = test system: COLO 205
UACC-62 = test system: UACC-62
CAKI-1 = test system: CAKI-1
HCC 2998 = test system: HCC 2998
ACHN = test system: ACHN
RXF 393 = test system: RXF 393
Malme-3M = test system: Malme-3M
EKVX = test system: EKVX
MDA-MB-231 = test system: MDA-MB-231
LOX IMVI = test system: LOX IMVI
TK-10 = test system: TK-10
NCI-H23 = test system: NCI-H23
KM12 = test system: KM12
MDA-N = test system: MDA-N
SR = test system: SR
BT-549 = test system: BT-549
NCI-H460 = test system: NCI-H460
HCT-116 = test system: HCT-116
OVCAR-8 = test system: OVCAR-8
SF-295 = test system: SF-295
NCI/ADR-RES = test system: NCI/ADR-RES
SK-MEL-28 = test system: SK-MEL-28
NCI-H226 = test system: NCI-H226
U-251 = test system: U-251
HOP-62 = test system: HOP-62
OVCAR-3 = test system: OVCAR-3
SK-MEL-2 = test system: SK-MEL-2
SF-539 = test system: SF-539
RPMI-8226 = test system: RPMI-8226

Measured: GI50

COc1ccc(-c2c(=O)[nH]n3c(=S)[nH]c(-c4ccccc4)nc23)cc1OC
inactive: SK-MEL-5 16.4 µM | SK-OV-3 25.1 µM | HOP-92 17.7 µM | A549 31.7 µM | A498 18.1 µM | SNB-19 15 µM | DU-145 23 µM | UACC-257 24 µM | HT-29 21.6 µM | SNB-75 24.5 µM | MDA-MB-435 18.9 µM | M14 19.9 µM | 786-0 17.2 µM | IGROV-1 23.8 µM | SF-268 19.4 µM | OVCAR-5 20.7 µM | OVCAR-4 21 µM | CCRF-CEM 9.1 µM | SN12C 16.2 µM | MOLT-4 8.51 µM | MCF7 15.8 µM | Hs-578T 29.7 µM | UO-31 17 µM | T47D 20.2 µM | K562 12.9 µM | NCI-H522 17.5 µM | PC-3 31.3 µM | HL-60 18 µM | SW-620 30.1 µM | COLO 205 16.8 µM | UACC-62 19.1 µM | CAKI-1 24.3 µM | HCC 2998 18.5 µM | ACHN 23.3 µM | RXF 393 17.7 µM | Malme-3M 19.2 µM | EKVX 22.5 µM | MDA-MB-231 28.6 µM | LOX IMVI 17.2 µM | TK-10 22.6 µM | NCI-H23 21.3 µM | KM12 17.7 µM | MDA-N 14.8 µM | SR 6.9 µM | BT-549 17.4 µM | NCI-H460 29 µM | HCT-116 16.6 µM | OVCAR-8 20.8 µM | SF-295 20.8 µM | NCI/ADR-RES 21.3 µM | SK-MEL-28 21.3 µM | NCI-H226 19.2 µM | U-251 17.5 µM | HOP-62 30 µM
17.3 µM: HCT-15

Cc1ccc(C)c(COCCOCn2ccc(N)nc2=O)c1
> 100 µM: HCT-15
inactive: OVCAR-3 > 100 µM | SK-OV-3 > 100 µM | HOP-92 > 100 µM | A549 > 100 µM | A498 > 100 µM | SNB-19 > 100 µM | DU-145 > 100 µM | UACC-257 > 100 µM | SNB-75 > 100 µM | MDA-MB-435 > 100 µM | M14 > 100 µM | 786-0 > 100 µM | IGROV-1 > 100 µM | SF-268 > 100 µM | OVCAR-5 > 100 µM | SN12C > 100 µM | MOLT-4 > 100 µM | MCF7 > 100 µM | Hs-578T > 100 µM | UO-31 > 100 µM | T47D > 100 µM | K562 > 100 µM | NCI-H522 > 100 µM | PC-3 > 100 µM | HL-60 18.5 µM | SW-620 > 100 µM | COLO 205 > 100 µM | UACC-62 > 100 µM | CAKI-1 > 100 µM | HCC 2998 > 100 µM | ACHN > 100 µM | RXF 393 > 100 µM | Malme-3M > 100 µM | EKVX > 100 µM | MDA-MB-231 > 100 µM | LOX IMVI > 100 µM | TK-10 > 100 µM | NCI-H23 > 100 µM | KM12 > 100 µM | MDA-N > 100 µM | SR > 100 µM | BT-549 > 100 µM | NCI-H460 > 100 µM | HCT-116 > 100 µM | OVCAR-8 > 100 µM | SF-295 > 100 µM | NCI/ADR-RES > 100 µM | SK-MEL-28 > 100 µM | NCI-H226 > 100 µM | U-251 > 100 µM | SK-MEL-2 > 100 µM | HOP-62 > 100 µM | SF-539 > 100 µM
active: CCRF-CEM 0.785 µM

Cc1cn(C2CC(N=[N+]=[N-])C(COP(=O)(O)OCC3OC(n4cc(F)c(=O)[nH]c4=O)CC3O)O2)c(=O)[nH]c1=O (stereo not drawn)
> 100 µM: HCT-15
active: HOP-92 1.11 µM | RPMI-8226 0.311 µM | A549 0.368 µM | 786-0 0.381 µM | SF-268 0.442 µM | CCRF-CEM 0.312 µM | MCF7 0.137 µM | UO-31 0.465 µM | ACHN 0.63 µM | LOX IMVI 0.653 µM | NCI-H460 0.0292 µM | SF-295 0.337 µM | NCI/ADR-RES 0.57 µM | HOP-62 0.348 µM | SF-539 0.0438 µM
inactive: SK-MEL-5 12.2 µM | OVCAR-3 > 100 µM | SK-OV-3 > 100 µM | A498 3.37 µM | SNB-19 > 31.6 µM | DU-145 4.1 µM | UACC-257 96.6 µM | HT-29 > 100 µM | SNB-75 9.06 µM | MDA-MB-435 16 µM | M14 10.9 µM | IGROV-1 2.88 µM | OVCAR-5 > 100 µM | SN12C > 100 µM | MOLT-4 2.22 µM | Hs-578T > 100 µM | T47D > 100 µM | NCI-H522 > 100 µM | PC-3 > 100 µM | HL-60 9.1 µM | SW-620 4.56 µM | COLO 205 > 100 µM | UACC-62 8.34 µM | CAKI-1 1.32 µM | HCC 2998 > 100 µM | RXF 393 > 100 µM | EKVX 6.46 µM | MDA-MB-231 > 100 µM | TK-10 > 100 µM | NCI-H23 4.05 µM | KM12 > 26.4 µM | MDA-N 38.3 µM | SR 1.92 µM | BT-549 > 100 µM | HCT-116 4.21 µM | OVCAR-8 5.94 µM | SK-MEL-28 > 77.4 µM | NCI-H226 > 100 µM | U-251 > 25.5 µM | SK-MEL-2 > 100 µM

Cc1ccccc1OC(C)C(=O)NN1C(=O)CSC1c1ccccc1 (stereo not drawn)
65.3 µM: HCT-15
inactive: SK-MEL-5 32.2 µM | OVCAR-3 58.7 µM | SK-OV-3 > 100 µM | HOP-92 47.8 µM | RPMI-8226 34.2 µM | A549 42 µM | A498 34.3 µM | SNB-19 67.6 µM | DU-145 > 100 µM | UACC-257 45.2 µM | HT-29 93.1 µM | SNB-75 60.7 µM | MDA-MB-435 79.3 µM | M14 > 100 µM | 786-0 > 100 µM | IGROV-1 > 100 µM | SF-268 > 100 µM | OVCAR-5 > 100 µM | OVCAR-4 > 100 µM | SN12C > 100 µM | MCF7 38.5 µM | Hs-578T > 100 µM | UO-31 63.2 µM | T47D 34.7 µM | K562 14.7 µM | NCI-H522 61.9 µM | PC-3 > 100 µM | SW-620 > 100 µM | COLO 205 > 100 µM | UACC-62 64.7 µM | CAKI-1 > 100 µM | HCC 2998 63.2 µM | ACHN 60.5 µM | RXF 393 45 µM | Malme-3M > 100 µM | EKVX 83.2 µM | MDA-MB-231 > 100 µM | LOX IMVI > 100 µM | TK-10 > 100 µM | NCI-H23 53.2 µM | KM12 93.5 µM | MDA-N 53.2 µM | SR 10.2 µM | BT-549 > 100 µM | NCI-H460 93.5 µM | HCT-116 53.1 µM | OVCAR-8 > 100 µM | SF-295 56.2 µM | NCI/ADR-RES 72.8 µM | SK-MEL-28 > 100 µM | NCI-H226 67.1 µM | U-251 96.4 µM | SK-MEL-2 > 100 µM | HOP-62 > 100 µM | SF-539 > 100 µM
active: MOLT-4 < 0.01 µM
